The record followed here is ChEMBL document CHEMBL1136737, “Virtual screening for submicromolar leads of tRNA-guanine transglycosylase based on a new unexpected binding mode detected by crystal structure analysis” (J Med Chem, 2003).

SMILES strings stand for the structures. pKi: −log10 of the molar value.

Broadly, the pKi is the negative decadic logarithm of the Ki, by convention in mol/L. A lower pKi goes with a high Ki.

The assay addresses Queuine tRNA-ribosyltransferase (Zymomonas mobilis (strain ATCC 31821 / ZM4 / CP4), UniProt P28720). Description: Inhibitory activity against eubacterial tRNA guanine transglycosylase (TGT) from Zymomonas mobilis.

Sequence of Queuine tRNA-ribosyltransferase (P28720 whole entry): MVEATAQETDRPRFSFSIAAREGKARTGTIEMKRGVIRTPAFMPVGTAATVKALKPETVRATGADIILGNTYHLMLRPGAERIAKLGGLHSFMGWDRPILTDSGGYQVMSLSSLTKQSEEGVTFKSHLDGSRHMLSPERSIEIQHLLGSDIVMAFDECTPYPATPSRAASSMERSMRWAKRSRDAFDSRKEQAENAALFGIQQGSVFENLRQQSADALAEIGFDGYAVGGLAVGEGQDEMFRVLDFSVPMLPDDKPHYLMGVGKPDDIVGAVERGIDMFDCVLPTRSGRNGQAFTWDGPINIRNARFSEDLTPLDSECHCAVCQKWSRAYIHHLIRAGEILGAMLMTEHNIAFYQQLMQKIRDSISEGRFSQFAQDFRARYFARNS

The compound `Cc1cnc2nc(N)nc(O)c2n1` gave a pKi of 6.60.

On to `Nc1nc(O)c2[nH]c(N3CCCCC3)nc2n1`, for which the pKi was 4.43.

`Nc1c2c(O)nc(O)cc2nn1CCO` had a pKi of 5.09.

Take `O=c1[nH][nH]c(=O)c2[nH]cnc12`: the pKi was 3.70.

In the case of `Cc1ccc2[nH]c3nnc(N)c-3cc2c1`, the pKi was 3.81.

`Nc1[nH]nc2nc(-c3ccccc3)[nH]c(=O)c12` showed a pKi of 3.60. This pKi lies 0.21 log units lower than the previous one.

`Nc1nc(O)c2[nH]c(SCc3ccc(Cl)cc3)nc2n1`: the pKi is 5.57.

For the compound `Cc1csc2c(O)c3c(=O)[nH][nH]c(=O)c3nc12`, the pKi was 5.33.

Compound `Nc1nc2nc(-c3ccccc3)cnc2c(=O)[nH]1` showed a pKi of 5.42.

The compound `NNC(=O)c1cc2cc(F)ccc2[nH]1` gave a pKi of 4.14.

As for `O=c1[nH][nH]c(=O)c2c(O)c3sccc3nc12`, the pKi was 5.30.

In turn, `Nc1cccc2c(=O)[nH][nH]c(=O)c12` showed a pKi of 4.44.

Compound `Nc1nc2nccnc2c(=O)[nH]1` [PTERINE] had a pKi of 6.22.
